Test [1] concerns the target T1, PIM1 serine/threonine kinase (Homo sapiens, UniProt P11309).
T1 construct: purchased Carna Bioscience, Inc
The test can be described thus: PIM1 serine/threonine kinase inhibitory effect. The following applies: PIM1 serine/threonine kinase activity; ATP 40 μM; 30° C., 30 minutes. The format is biochemical. In short, it runs like this: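 Compounds were tested in duplicate from 0.01 to 10000 nM final against PIM1 kinase (0.15 μg/ml). The reaction ran for 30 minutes at 30° C with 40 μM ATP and 0.5 μM biotin-tagged substrate at pH 7.0. Phosphorylation was read by time-resolved FRET (OD665/OD620) after 1 h; IC50 by non-linear fit.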

The target of test [2] is PIM1 transgenic cells (Ba/F3) (Homo sapiens, UniProt P11309). The test can be described thus: Proliferation inhibitory effect on PIM1 transgenic cells. The format is cell-based, mouse. The following applies: proliferation inhibition, 72 hours, Cell Counting Kit-8, read-out: PIM1 IC50. Summed up: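 Mouse Ba/F3 pro-B cells were retrovirally transduced with human PIM1 so that their proliferation depends on PIM1. Cells were treated with compound at 1–10000 nM final for 72 h, then read by CCK-8 (OD450−OD650). Inhibition was set against DMSO (0%) and no-cell blank (100%), and IC50 was obtained by two-parameter logistic regression.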
PIM1 transgenic cells (Ba/F3), sequence (P11309 whole entry, stated change not applied): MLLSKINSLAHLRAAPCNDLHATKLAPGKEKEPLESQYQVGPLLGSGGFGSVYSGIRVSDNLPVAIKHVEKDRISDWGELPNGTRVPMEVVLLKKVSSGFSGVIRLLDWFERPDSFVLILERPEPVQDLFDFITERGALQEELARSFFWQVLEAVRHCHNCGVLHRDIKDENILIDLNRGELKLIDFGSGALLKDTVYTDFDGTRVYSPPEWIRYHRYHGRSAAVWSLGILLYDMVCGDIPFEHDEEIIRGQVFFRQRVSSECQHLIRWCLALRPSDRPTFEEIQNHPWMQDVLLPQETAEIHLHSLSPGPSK

In test [3] the target is PIM2 transgenic cells (Ba/F3) (Homo sapiens, UniProt Q9P1W9). Description: Proliferation inhibitory effect on PIM2 transgenic cells. The following applies: proliferation inhibition, 72 hours, Cell Counting Kit-8, read-out: PIM2 IC50. The format is cell-based, mouse. An excerpt: (§1) Human PIM1, 2, and 3 genes were inserted into the multi-cloning sites of retrovirus expression vectors pMYs-IRES-GFP, respectively, to prepare gene transfer vectors. Then, each gene transfer vector was introduced into packaging cells PLAT-E derived from a human fetal kidney cell line in the logarithmic growth phase, using a transfection reagent (FuGENE6, Promega Corporation). Since the culture supernatant of PLAT-E after gene transfer contained virus particles for gene transfer, the culture supernatant was collected and used as a medium for gene transfer. The medium for gene transfer was added to a plate coated with RetroNectin, and the plate was incubated to attach the virus particles to the plate. Then, a mouse pro-B cell line Ba/F3 in the logarithmic growth phase was seeded on the plate and infected with the virus to prepare PIM1, 2, or 3 transgenic cells that proliferate in a PIM 1, 2, or 3-dependent manner. The expression of PIM1, 2, or 3 protein in each cell was confirmed by Western blotting.
PIM2 transgenic cells (Ba/F3), sequence (Q9P1W9 whole entry, stated change not applied): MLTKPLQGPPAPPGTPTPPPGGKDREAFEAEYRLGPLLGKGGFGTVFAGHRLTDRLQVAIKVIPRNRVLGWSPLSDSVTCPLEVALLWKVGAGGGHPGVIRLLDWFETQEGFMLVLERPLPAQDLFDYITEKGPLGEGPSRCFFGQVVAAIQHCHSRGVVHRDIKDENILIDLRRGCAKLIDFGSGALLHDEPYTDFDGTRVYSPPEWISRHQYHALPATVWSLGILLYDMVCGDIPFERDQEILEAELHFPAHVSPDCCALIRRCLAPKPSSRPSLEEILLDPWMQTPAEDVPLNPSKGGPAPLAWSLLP
(§2) Each test substance was prepared to 10 mM with dimethylsulfoxide (DMSO), and diluted with DMSO so as to have concentrations of 3000, 1000, 300, 100, 30, 10, 3, and 1 μM. Moreover, each dilution was further diluted 10-fold with distilled water to prepare a test substance solution.
(§3) PIM1, 2, 3-expressing cells were seeded on a 96-well plate, and each test substance solution prepared the next day was added such that final concentrations were 10000, 3000, 1000, 300, 100, 30, 10, 3, and 1 nM. 72 hours after the addition, 10 μL of Cell Counting Kit-8 (DOJINDO LABORATORIES) was added to each well. After incubation for 1 to 4 hours, absorbance OD450 at 450 nm was measured. In addition, absorption OD650 at 650 nm as a reference wavelength was measured.
(§4) OD450-OD650 for each condition was calculated, and then the inhibition rates when OD450-OD650 of negative control (DMSO only) and OD450-OD650 of Blank (without cells) were set to 0% and 100%, respectively, were calculated. Then, non-linear regression analysis was performed for logarithmic dose and inhibition rate using a two-parameter logistic model to estimate IC50 values.
(§5) For the compounds with the following Example numbers, in addition to the above proliferation inhibitory effect on PIM1 transgenic cells, the proliferation inhibitory effect on PIM2 transgenic cells and the proliferation inhibitory effect on PIM3 transgenic cells were calculated as IC50.
(Tetrazolium dyes change colour on reduction, which living cells bring about.)

Test [4] has as its target PIM3 transgenic cells (Ba/F3) (Homo sapiens, UniProt Q86V86). The test can be described thus: Proliferation inhibitory effect on PIM3 transgenic cells. The format is cell-based, mouse. The following applies: proliferation inhibition, 72 hours, Cell Counting Kit-8, read-out: PIM3 IC50.
Text: as §1, §2, §3, §4, §5

Test [5] has as its system graft-versus-host disease model CB6F1 mice. Description: Lymphocyte proliferation inhibitory effect using graft-versus-host disease model animals (splenomegaly formation). The test is classed as in vivo. The following applies: Mus musculus, 240 h, oral, twice a day for 10 days, GVHD model CB6F1 mice, read-out: Inhibition rate (%) (splenomegaly formation); for inhibition in vivo at 3 mg/kg: single dose 3 mg/kg; for inhibition in vivo at 10 mg/kg: single dose 10 mg/kg. On the procedure:
BALB/c mice (8-week-aged female) were euthanized, and then the spleen was removed from each mouse. Then, hemolysis treatment was performed to isolate spleen cells. The obtained spleen cells were intravenously transplanted into CB6F1 mice (8-week-aged female), which are C57BL/6 and BALB/c F1 mice, to prepare a model, and splenomegaly was induced. For transplantation, spleen cells for 1.2 BALB/c mouse were used for one CB6F1 mouse.
Each test substance shown in Table 64 was weighed and dissolved in a 0.5% methyl cellulose solution, thereby preparing test substance solutions of 0.3 to 10 mg/mL.
A vehicle (0.5% methyl cellulose solution) or test substance was orally administered to each CB6F1 mouse after transplantation at a dose of 3 to 50 mg/kg in terms of body weight twice a day for 10 days from the day after transplantation. The mouse was euthanized on the 11th day from the start of administration, then the spleen was removed therefrom, and the wet weight of the spleen was measured. For each of CB6F1 mice that had not undergone transplantation as a control group, the wet weight of the spleen was also measured.
The splenomegaly formation inhibition rate when the spleen weights of the mice to which the vehicle was administered after transplantation and the mice on which transplantation had not been performed were 0% and 100%, respectively, was calculated.

The target of test [6] is T2, PIM2 serine/threonine kinase (Homo sapiens, UniProt Q9P1W9).
T2 construct: purchased Carna Bioscience, Inc
T2 sequence (Q9P1W9 whole entry): as the sequence (Q9P1W9 whole entry, stated change not applied) above
The test can be described thus: PIM2 serine/threonine kinase inhibitory effect. The format is biochemical. The following applies: PIM2 serine/threonine kinase activity; ATP 2 μM; 30° C., 30 minutes. How it is done: (§6) Each test substance was prepared to 10 mM with dimethylsulfoxide (DMSO), and further diluted with DMSO so as to have concentrations of 1000, 300, 100, 30, 10, 3, 1, 0.3, 0.1, 0.03, 0.01, and 0.001 μM. Moreover, each dilution was further diluted 33.3-fold with an assay buffer to prepare a test substance solution. The composition of the assay buffer was 50 mM HEPES (pH 7.0), 0.02% NaN3, 0.01% Bovine Serum Albumin, 0.1 mM Orthovanadate, 1 mM Dithiothreitol, and 5 mM MgCl2.
(§7) 5 μL of each test substance solution was added to 384-well plates (n=2), and then 2.5 μL of a substrate solution (substrate 3-biotin (Cisbio Bioassays SAS), final concentration in the reaction solution: 0.5 μM) and 2.5 μL of an ATP solution (in the cases of PIM1, 2, 3, the final concentrations in the reaction solutions were 40, 2, and 10 μM, respectively) were added, 5 μL of each of PIM1, 2, 3 serine/threonine kinase solutions (Carna Bioscience, Inc., the final concentrations in the reaction solutions were 0.15, 1.6, and 0.25 μg/ml, respectively) was finally added, and the mixture was reacted at 30° C. for 30 minutes. The test substance concentrations in the reaction solutions are 10000, 3000, 1000, 300, 100, 30, 10, 3, 1, 0.3, 0.1, and 0.01 nM.
(§8) Thereafter, 15 μL of each detection solution (62.5 nM Streptavidin-XL665 (Cisbio Bioassays SAS), […] STK antibody-Cryptate (Cisbio Bioassays SAS), 50 mM HEPES (pH 7.0), 0.8 M KF, 0.1% Bovine Serum Albumin, 20 mM ethylenediaminetetraacetic acid) was added to each well. After stirring, the mixture was reacted at 30° C. for 1 hour. Absorbance (OD620, OD665) at 620 and 665 nm was measured with a microplate reader (SpectraMax M5e, Molecular Devices, LLC).
(§9) Non-linear regression analysis was performed by an SAS system (SAS Institute Inc.) using the ratio (OD665/OD620) of the measured absorbance to calculate a test substance concentration (IC50) that inhibits PIM1 serine/threonine kinase activity by 50%.
(§10) For the compounds with the following Example numbers, in addition to the above PIM1 serine/threonine kinase activity (IC50), test substance concentrations (IC50) that inhibit PIM2 serine/threonine kinase activity and PIM3 serine/threonine kinase activity by 50% were calculated.

The target in test [7] is T3, PIM3 serine/threonine kinase (Homo sapiens, UniProt Q86V86).
T3 construct: purchased Carna Bioscience, Inc
Description: PIM3 serine/threonine kinase inhibitory effect. The format is biochemical. The following applies: PIM3 serine/threonine kinase activity; ATP 10 μM; 30° C., 30 minutes. On the procedure: as §6, §7, §8, §9, §10

The subject of test [8] is graft-versus-host disease model CB6F1 mice. Description: Lymphocyte proliferation inhibitory effect using graft-versus-host disease model animals (splenomegaly formation). The test is classed as in vivo. The following applies: Mus musculus, 240 h, single dose 100 mg/kg, oral, twice a day for 10 days, GVHD model CB6F1 mice, read-out: Inhibition rate (%) (splenomegaly formation).

Counter-ions that a name gives are not always drawn.

This note sets out measurements from patent publication US20220024921A1, “1,3,4-OXADIAZOLONE COMPOUND AND PHARMACEUTICAL” (NIPPON SHINYAKU CO., LTD., priority 2018, published 2022).

T1 sequence (P11309 whole entry): as the sequence (P11309 whole entry, stated change not applied) above

On to `C[C@@H]1CNCC[C@@H]1[C@H](C)Nc1cc(-c2n[nH]c(=O)o2)cc(F)c1OC(F)(F)F` [Example 219, 5-[3-fluoro-5-({(1S)-1-[(3S,4S)-3-methylpiperidin-4-yl]ethyl}amino)-4-(trifluoromethoxy)phenyl]-1,3,4-oxadiazol-2(3H)-one], for which, in test [1], it took 1.8 nM to reach half-maximal inhibition (IC50). In addition, the GI50 in test [2] was 11 nM; in test [3], 1100 nM; in test [4], 40 nM. Moreover, the inhibition in vivo at 3 mg/kg in test [5] was found to be 27.7%. In test [5], the inhibition in vivo at 10 mg/kg is 33.8%.
Turning to `C[C@H](Nc1cc(-c2n[nH]c(=O)o2)cc(F)c1C(F)(F)F)[C@H]1CCNC[C@H]1F` [Example 223, 5-[3-fluoro-5-({(1S)-1-[(3S,4R)-3-fluoropiperidin-4-yl]ethyl}amino)-4-(trifluoromethyl)phenyl]-1,3,4-oxadiazol-2(3H)-one hydrochloride], in test [1], half-maximal inhibition (IC50) required 1.6 nM. The figures for the GI50 in test [2], in test [3] and in test [4] were 11 nM, 290 nM and 59 nM, respectively. In test [5], the inhibition in vivo at 3 mg/kg came to 34.1%. Besides, in test [5], the inhibition in vivo at 10 mg/kg came to 36.8%.
In the case of `CC[C@@H]1CNCC[C@@H]1[C@H](C)Nc1cc(-c2n[nH]c(=O)o2)cc(F)c1C(F)(F)F` [Example 225, 5-[3-({(1S)-1-[(3S,4S)-3-ethylpiperidin-4-yl]ethyl}amino)-5-fluoro-4-(trifluoromethyl)phenyl]-1,3,4-oxadiazol-2(3H)-one], in test [1], inhibition was half-maximal at 1.1 nM (IC50). Moreover, the figures for the GI50 in test [2], in test [3] and in test [4] were 7.6 nM, 390 nM and 51 nM, respectively. For the same compound, in test [5], the inhibition in vivo at 3 mg/kg was 18.9%. In test [5], the inhibition in vivo at 10 mg/kg was found to be 32.3%.
On to `C[C@H](Nc1cc(-c2n[nH]c(=O)o2)cc(F)c1OC(F)(F)F)[C@H]1CCNC[C@H]1F` [Example 224, 5-[3-fluoro-5-({(1S)-1-[(3S,4R)-3-fluoropiperidin-4-yl]ethyl}amino)-4-(trifluoromethoxy)phenyl]-1,3,4-oxadiazol-2(3H)-one], for which the IC50 (as a rule, the concentration that inhibits the measured activity by half) in test [1] stood at 0.8 nM. The GI50 in test [2] came out at 7.1 nM; in test [3], 510 nM; in test [4] it was 35 nM. Further, the inhibition in vivo at 3 mg/kg in test [5] came to 22.8%. Also, in test [5], the inhibition in vivo at 10 mg/kg worked out at 39.1%.
With `CC(Nc1cc(-c2n[nH]c(=O)o2)ccc1C(F)(F)F)[C@H]1CC[C@H](N)CC1` (some centres unmarked) [Example 63, 5-[3-({1-[(1r,4r)-4-aminocyclohexyl]ethyl}amino)-4-(trifluoromethyl)phenyl]-1,3,4-oxadiazol-2(3H)-one hydrochloride], the half-maximal inhibitory concentration (IC50) in test [1] is 0.7 nM; in test [6], 13 nM; in test [7], 5 nM. The GI50 in test [2] worked out at 28 nM.
Turning to `C[C@H](Nc1cc(-c2n[nH]c(=O)o2)ccc1C(F)(F)F)C1CCNCC1` [Example 58, 5-[3-{[(1S)-1-(piperidin-4-yl)ethyl]amino}-4-(trifluoromethyl)phenyl]-1,3,4-oxadiazol-2(3H)-one hydrochloride], the figures for the concentration for half-maximal inhibition (IC50) in test [1], in test [6] and in test [7] were 2 nM, 18 nM and 16 nM, respectively. Besides, the GI50 in test [2] came to 33 nM; in test [3], 3600 nM; in test [4], 570 nM. In test [5] (single dose 25 mg/kg), the inhibition in vivo at 25 mg/kg amounted to 19%. Also, in test [5] (single dose 50 mg/kg), the inhibition in vivo at 50 mg/kg came out at 41.6%. Also, the inhibition in vivo at 100 mg/kg in test [8] was 39.8%.
`N[C@H]1CC[C@H](CNc2cc(-c3n[nH]c(=O)o3)ccc2Br)CC1` [Example 68, 5-[3-({[(1r,4r)-4-aminocyclohexyl]methyl}amino)-4-bromophenyl]-1,3,4-oxadiazol-2(3H)-one hydrochloride]: the concentration for half-maximal inhibition (IC50) amounted to 1.4 nM in test [1], 18 nM in test [6] and 5 nM in test [7]. The GI50 in test [2] is 61 nM.
